Measured values from patent publication US12435037B2, “Acetylsalicylic acid derivative and application thereof” (Zhejiang Hanmai Pharmaceutical Technology Co., Ltd., priority 2018, dated 2025).

Legend:
[1] = system: monkey platelet aggregation; experiment: Inhibitory effect on monkey platelet aggregation after transdermal administration; type: in vivo; details: cynomolgus monkeys, transdermal daily for four weeks (70 mg/kg; comparator 60 mg/kg), inducer 1 mM arachidonic acid
Experimental: The dose volume for a monkey was calculated based on its weight. The hair on the monkey's back was shaved, and the drug was evenly applied to the bare skin. The drug was administered continuously every day for four weeks. Blank blood was collected before administration, and blood was collected once a week after administration to detect the platelet aggregation ability (the inducer was 1 mM arachidonic acid).

[2] = Metabolism in 10% diluted plasma, mouse; details: 10% diluted mouse plasma
[3] = Metabolism in 10% diluted plasma, rat; details: 10% diluted rat plasma
in vitro = details: monkey, 10% monkey plasma diluent
[4] = Plasma metabolic stability test in 10% monkey plasma diluent; details: 37° C.

Highest acetylsalicylic acid concentration in plasma [2]: BLOQ
Highest acetylsalicylic acid concentration in plasma [3]: BLOQ
C0 at 0 min, 1 μM/mL (in vitro): 262 µg/mL
concentration of the parent drug ([4]; 10 min): 3.09 µg/mL
concentration of the parent drug ([4]; 30 min): undetectable
SMILES: CCN(CC)CCOC(=O)c1ccccc1OC(C)=O.Cl
inhibitory effect on platelet aggregation [1]: cannot inhibit platelet aggregation effectively
platelet aggregation rate [1]: about 50%
